Reference: PubChem BioAssay (NCI)
Values joined by “and” are separate entries in the source; they are usually repeats but may differ in a detail not shown here. Identical values can stand only once.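 Test compounds were applied to cells in 96-well plates for 48 hours at 5 doses. GI50 = concentration required for 50% inhibition of growth. TGI: total growth inhibition.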

Assays:
Test in all cases: NCI anticancer screen, dose series, 48 h
[1] = test system: A549 NSCLC
[2] = test system: CCRF-CEM leukemia
[3] = test system: HOP-92 NSCLC
[4] = test system: HS 578T breast
[5] = test system: K-562 leukemia
[6] = test system: M14 melanoma
[7] = test system: RXF 393 renal
[8] = test system: SK-MEL-2 melanoma
[9] = test system: SNB-19 CNS
[10] = test system: SR leukemia

Row | SMILES | GI50 [1] [µM] | TGI [1] | TGI [2] | GI50 [3] [µM] | TGI [3] | TGI [4] [µM] | GI50 [5] [µM] | TGI [5] [µM] | GI50 [6] [µM] | TGI [6] | TGI [7] [µM] | TGI [8] [µM] | GI50 [9] [µM] | GI50 [10] [µM] | TGI [10] [µM] | GI50 [2] [µM] | GI50 [4] [µM] | GI50 [7] [µM] | GI50 [8] [µM] | TGI [9] [µM]
1 | Cc1ccc2oc(=O)c3c(O)c4cccc(OC5OC(C)C6O[C@@H](c7ccccc7)OC6C5OC5OC(C)C(O)C(O)C5O)c4c4oc(=O)c1c2c34 (some centres not stated) | 0.0214 | 0.521 µM and 0.924 µM | 0.365 µM and 0.363 µM | 0.333 | 2.22 µM and 2.13 µM | 1.97 | 0.0708 | 2.6 | 0.409 | 1.85 µM and 1.64 µM | 0.763 | 1.68 | 0.0266 | 0.0174 | < 0.0472 |  |  |  |  | 
2 | O=C(O)COc1ccc(OCC(=O)O)cc1 | 0.432 | 2.16 µM | 21 µM | 0.319 | 7.59 µM | 13.6 | 2.49 | 16.6 | 0.847 | 12.3 µM | 4.64 | 15.9 | 0.273 | 0.0614 | 12.7 | 0.2 | 1.97 | 0.97 | 3.28 | 11.3
3 | COc1ccc(Nc2ncnc3ccc(-c4cncc(NS(C)(=O)=O)c4)cc23)cc1Cl | 5.18 | 22.9 µM | 10 µM | 0.348 | 4.62 µM | 5.18 | 3.2 | 18.7 | 2.81 | 13.6 µM | 5.63 | 2.67 | 2.81 | 1.42 | 5.86 | 0.896 | 1.26 | 2.08 | 1.02 | 24.4
4 | COc1ccc(CSC2=C(C#N)C(=O)NC3(CCCCC3)S2)cc1 |  | > 100 µM | 24.7 µM |  | > 100 µM | > 75.8 |  | > 100 |  | > 100 µM | > 73.3 | > 100 |  |  | > 100 |  |  |  |  | > 100
5 | CC(C)C[C@H](NC(=O)Cn1cccc(CNC(=O)c2ccccc2)c1=O)B(O)O | 4.54 | > 100 µM | > 20.1 µM | 0.638 | 4.61 µM |  | 1.3 | > 100 | 0.27 | 1.42 µM | 1.1 | 2.79 | 0.495 | 0.304 | > 100 | 0.374 | 0.335 | 0.316 | 0.384 | > 100
6 | COc1c(OC)c(OC)c2c(=O)cc(-c3ccc(OC(C)C)cc3)oc2c1OC |  | > 51.1 µM | > 68.5 µM |  | 23.4 µM | 52.5 |  | > 100 |  | 43.1 µM | > 48.7 | > 50.7 |  |  | > 26.2 |  |  |  |  | > 53.5
7 | CCC[CH2][Sn]([CH2]CCC)([CH2]CCC)/[C](=C/[Si](C)(C)c1ccccc1)c1ccc2c(c1)OCO2 | 25.2 | 82.9 µM | 73.2 µM | 11.4 | 29.4 µM | > 100 | 22.9 | 73.9 | 16.8 | 35.2 µM | 41.2 | 63.5 | 21.3 | 8.61 | 63.9 | 12 | 42.6 | 22.1 | 23.5 | 49.7
8 | O=C1NC(=O)C(c2cccc(Cl)c2)=C1Nc1ccc(Cl)c(C(=O)O)c1 | > 25 | > 25 µM | > 25 µM | > 25 | > 25 µM | > 25 | > 25 | > 25 | > 25 | > 25 µM | > 25 | > 25 | > 25 | > 25 | > 25 | > 25 | > 25 | > 25 | > 25 | > 25
9 | FC(F)c1ncc(-c2ccc(C(F)(F)F)cc2)c(NC2CCCCCC2)n1 | > 10 | > 10 µM | > 10 µM | > 10 | > 10 µM | > 10 | > 10 | > 10 | > 10 | > 10 µM | > 10 | > 10 | > 10 | > 10 | > 10 | > 10 | > 10 | > 10 | > 10 | > 10
10 | CN1CCN(Cc2ccc(NC(=O)c3[nH]ncc3Nc3ncnc4[nH]ccc34)cc2)CC1 | 0.742 | 10.8 µM | 5.68 µM | 0.431 | 0.741 µM | 0.98 | 0.265 | > 100 | 0.473 | 8.66 µM | 0.464 | 0.921 | 0.373 | 0.229 | 0.708 | 0.254 | 0.197 | 0.199 | 0.325 | 6.59
11 | COc1cc(F)c(F)cc1C(=O)c1cnc(NC2CCN(S(C)(=O)=O)CC2)nc1N | 3.18 | > 25 µM | 18.8 µM |  |  | > 21.8 | 7.29 | > 25 | 4.73 | > 25 µM | 7.18 | 12.6 | 2.32 | 1.23 | 10.2 | 4.86 | 4.71 | 3.01 | 3.86 | > 25
12 | COC(=O)c1onc(C2OC(C)(C)OC2C(O)COC(c2ccccc2)(c2ccccc2)c2ccccc2)c1C(=O)OC (configuration not stated) |  | > 100 µM | > 100 µM |  | > 100 µM | > 100 |  | > 100 |  | > 100 µM | > 100 | > 100 |  |  | > 100 |  |  |  |  | > 100
13 | Nc1c(C(=O)c2cccc(C(O)CO)c2)cnn1-c1ccc(F)cc1 (configuration not stated) | > 25 | > 25 µM | > 25 µM | > 25 | > 25 µM | > 25 | > 25 | > 25 | > 25 | > 25 µM | > 25 | > 25 | > 25 | > 25 | > 25 | > 25 | > 25 | > 25 | > 25 | > 25
